Experimental data published in patent US5446025A, “Formulations and method of the percutaneous administration of leuprolide” (Abbott Laboratories, priority 1992, dated 1995).

Assay type: physicochemical
Protocol: Partitioning studies of leuprolide free base and the acetate, palmitate, and decanesulfonate salts were conducted in Type I glass culture tubes fitted with poly(tetrafluroethylene)-lined caps. Octanol-saturated water was used to prepare solutions of leuprolide free base and the leuprolide salts at concentrations of 500 μg/ml. Ten ml of each solution and 10 ml of water-saturated octanol were placed in the glass tubes which were then tightly capped and shaken for 24 hours at 30° C. At the end of this time, the tubes were centrifuged at 2000 rpm for ten minutes. The water and octanol layers were separated and each analyzed for the concentrations of leuprolide or leuprolide salt. The octanol-water distribution coefficients, Kd, was calculated from the ratio of concentration in the non-aqueous phase and the aqueous phase.

Lipophilicity relative to the acetate salt, as measured by the octanol/water distribution coefficient: roughly six
Structure (SMILES): CCNC(=O)[C@@H]1CCCN1C(=O)[C@H](CCCNC(=N)N)NC(=O)[C@H](CC(C)C)NC(=O)[C@@H](CC(C)C)NC(=O)[C@H](Cc1ccc(O)cc1)NC(=O)[C@H](CO)NC(=O)[C@H](Cc1c[nH]c2ccccc12)NC(=O)[C@H](Cc1c[nH]cn1)NC(=O)[C@@H]1CCC(=O)N1 [Leuprolide free base, leuprolide]
